Test results published in patent US9284321B2, “Piperazino[1,2-a]indol-1-ones and [1,4]diazepino[1,2-a]indol-1-one” (Hoffmann-La Roche Inc., priority 2012, dated 2016).

Assays:
[1] = system: human embryonic stem cell derived neural stem cells (NSCs); assay: Neural Stem Cell Proliferation Assay (neurogenesis assay, ATP levels by CellTiterGlo); type: cell-based; conditions: 96 h, compound concentration at which 150% activity of control (100%) is reached, NSC proliferation by ATP level after 4 days incubation, dose response 8 μM to 8 nM
How it was run: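 Read-out is CellTiterGlo ATP luminescence after 4-day culture (37 °C, 5% CO2) of dual-SMAD-derived human ESC NSCs, dosed 4 h post-seeding at 8 μM to 8 nM (11 points, 2-fold). EC150 marks the concentration reaching 150% of the media-only control (0.25% DMSO).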

| Structure (SMILES) | EC (150% of control) [1] | melting point |
| --- | --- | --- |
| Cc1c2n(c3c(-c4cc(F)cc(F)c4)cc(F)cc13)CCNC2=O [Example 84, 6-(3,5-Difluoro-phenyl)-8-fluoro-10-methyl-3,4-dihydro-2H-pyrazino[1,2-a]indol-1-one] | 0.15 µM | 250 °C |
| Cc1c2n(c3c(-c4ccc(Cl)c(F)c4)cc(F)cc13)CCNC2=O [Example 85, 6-(4-Chloro-3-fluoro-phenyl)-8-fluoro-10-methyl-3,4-dihydro-2H-pyrazino[1,2-a]indol-1-one] | 0.04 µM | 216 °C |
| Cc1c2n(c3c(-c4ccc(Cl)c(Cl)c4)cc(F)cc13)CCNC2=O [Example 86, 6-(3,4-Dichloro-phenyl)-8-fluoro-10-methyl-3,4-dihydro-2H-pyrazino[1,2-a]indol-1-one] | 0.05 µM | 224 °C |
| Cc1c2n(c3c(-c4cccc(F)c4)cc(F)cc13)CCNC2=O [Example 87, 8-Fluoro-6-(3-fluoro-phenyl)-10-methyl-3,4-dihydro-2H-pyrazino[1,2-a]indol-1-one] | 0.1 µM | 222 °C |
| Cc1c2n(c3c(-c4ccccc4)cc(Cl)cc13)CCNC2=O [Example 88, 8-Chloro-10-methyl-6-phenyl-3,4-dihydro-2H-pyrazino[1,2-a]indol-1-one] | 0.053 µM | 230.5 °C |
| Cc1ccc(-c2cc(Cl)cc3c(C)c4n(c23)CCNC4=O)cc1 [Example 89, 8-Chloro-10-methyl-6-p-tolyl-3,4-dihydro-2H-pyrazino[1,2-a]indol-1-one] | 0.01 µM | 251.5 °C |
| Cc1c2n(c3c(-c4ccc(C(F)(F)F)cc4)cc(Cl)cc13)CCNC2=O [Example 90, 8-Chloro-10-methyl-6-(4-trifluoromethyl-phenyl)-3,4-dihydro-2H-pyrazino[1,2-a]indol-1-one] | 0.017 µM | 260.5 °C |
| Cc1c2n(c3c(-c4ccncc4)cc(Cl)cc13)CCNC2=O [Example 91, 8-Chloro-10-methyl-6-pyridin-4-yl-3,4-dihydro-2H-pyrazino[1,2-a]indol-1-one] | 0.017 µM | 295 °C |
| N#Cc1cc(-c2ccncc2)c2c(c1)cc1n2CCNC1=O [Example 92, 1-Oxo-6-pyridin-4-yl-1,2,3,4-tetrahydro-pyrazino[1,2-a]indole-8-carbonitrile] | 0.047 µM | 315.5 °C |
| N#Cc1cc(-c2ccccc2)c2c(c1)cc1n2CCNC1=O [Example 93, 1-Oxo-6-phenyl-1,2,3,4-tetrahydro-pyrazino[1,2-a]indole-8-carbonitrile] | 0.035 µM | 265.5 °C |
| Cc1ccc(-c2cc(C#N)cc3cc4n(c23)CCNC4=O)cc1 [Example 94, 1-Oxo-6-p-tolyl-1,2,3,4-tetrahydro-pyrazino[1,2-a]indole-8-carbonitrile] | 0.011 µM | 285.5 °C |
| N#Cc1cc(-c2ccc(C(F)(F)F)cc2)c2c(c1)cc1n2CCNC1=O [Example 95, 1-Oxo-6-(4-trifluoromethyl-phenyl)-1,2,3,4-tetrahydro-pyrazino[1,2-a]indole-8-carbonitrile] | 0.018 µM | 359 °C |
| Cc1c2n(c3c(-c4cccc(F)c4)cc(Cl)cc13)CCNC2=O [Example 96, 8-Chloro-6-(3-fluoro-phenyl)-10-methyl-3,4-dihydro-2H-pyrazino[1,2-a]indol-1-one] | 0.15 µM | 239 °C |
| Cc1c2n(c3c(-c4ccc(Cl)c(Cl)c4)cc(Cl)cc13)CCNC2=O [Example 97, 8-Chloro-6-(3,4-dichloro-phenyl)-10-methyl-3,4-dihydro-2H-pyrazino[1,2-a]indol-1-one] | 0.056 µM | 240 °C |
| Cc1c2n(c3c(-c4ccc(Cl)c(F)c4)cc(Cl)cc13)CCNC2=O [Example 98, 8-Chloro-6-(4-chloro-3-fluoro-phenyl)-10-methyl-3,4-dihydro-2H-pyrazino[1,2-a]indol-1-one] | 0.019 µM | 242.5 °C |
| Cc1c2n(c3c(-c4cc(F)cc(F)c4)cc(Cl)cc13)CCNC2=O [Example 99, 8-Chloro-6-(3,5-difluoro-phenyl)-10-methyl-3,4-dihydro-2H-pyrazino[1,2-a]indol-1-one] | 0.12 µM | 241 °C |
| Cc1c2n(c3c(-c4ccc(F)cc4F)cc(Cl)cc13)CCNC2=O [Example 100, 8-Chloro-6-(2,4-difluoro-phenyl)-10-methyl-3,4-dihydro-2H-pyrazino[1,2-a]indol-1-one] | 0.009 µM | 238 °C |
| Cc1c2n(c3c(-c4ccc(Cl)cc4F)cc(Cl)cc13)CCNC2=O [Example 101, 8-Chloro-6-(4-chloro-2-fluoro-phenyl)-10-methyl-3,4-dihydro-2H-pyrazino[1,2-a]indol-1-one] | 0.006 µM | 251.5 °C |

| Structure (SMILES) | EC (150% of control) [1] | melting point |
| --- | --- | --- |
| Cc1c2n(c3c(-c4ccc(Cl)cc4Cl)cc(Cl)cc13)CCNC2=O [Example 102, 8-Chloro-6-(2,4-dichloro-phenyl)-10-methyl-3,4-dihydro-2H-pyrazino[1,2-a]indol-1-one] | 0.009 µM | 213 °C |
| Cc1c2n(c3c(-c4ccc5c(c4)OCO5)cc(Cl)cc13)CCNC2=O [Example 103, 6-Benzo[1,3]dioxol-5-yl-8-chloro-10-methyl-3,4-dihydro-2H-pyrazino[1,2-a]indol-1-one] | 0.018 µM | 244.5 °C |
| Cc1c2n(c3c(-c4ccc(C#N)cc4)cc(Cl)cc13)CCNC2=O [Example 104, 4-(8-Chloro-10-methyl-1-oxo-1,2,3,4-tetrahydro-pyrazino[1,2-a]indol-6-yl)-benzonitrile] | 0.015 µM | 290 °C |
| Cc1ccc(-c2cc(Cl)cc3c(C)c4n(c23)CCNC4=O)cc1F [Example 105, 8-Chloro-6-(3-fluoro-4-methyl-phenyl)-10-methyl-3,4-dihydro-2H-pyrazino[1,2-a]indol-1-one] | 0.029 µM | 225 °C |
| Cc1c2n(c3c(-c4ccc(C(C)C)cc4)cc(Cl)cc13)CCNC2=O [Example 106, 8-Chloro-6-(4-isopropyl-phenyl)-10-methyl-3,4-dihydro-2H-pyrazino[1,2-a]indol-1-one] | 0.05 µM | 194.5 °C |
| Cc1c2n(c3c(-c4ccc(S(C)(=O)=O)cc4)cc(Cl)cc13)CCNC2=O [Example 107, 8-Chloro-6-(4-methanesulfonyl-phenyl)-10-methyl-3,4-dihydro-2H-pyrazino[1,2-a]indol-1-one] | 0.027 µM | 321.5 °C |
| Cc1c2n(c3c(-c4ccnc(F)c4)cc(Cl)cc13)CCNC2=O [Example 108, 8-Chloro-6-(2-fluoro-pyridin-4-yl)-10-methyl-3,4-dihydro-2H-pyrazino[1,2-a]indol-1-one] | 0.021 µM | 290.5 °C |
| Cc1c2n(c3c(-c4ccc([N+](=O)[O-])cc4)cc(Cl)cc13)CCNC2=O [Example 109, 8-Chloro-10-methyl-6-(4-nitro-phenyl)-3,4-dihydro-2H-pyrazino[1,2-a]indol-1-one] | 0.007 µM | 313.5 °C |
| Cc1c2n(c3c(-c4ccc(CO)cc4)cc(Cl)cc13)CCNC2=O [Example 110, 8-Chloro-6-(4-hydroxymethyl-phenyl)-10-methyl-3,4-dihydro-2H-pyrazino[1,2-a]indol-1-one] | 0.014 µM | 211 °C |
| COc1ccc(-c2cc(Cl)cc3c(C)c4n(c23)CCNC4=O)cn1 [Example 111, 8-Chloro-6-(6-methoxy-pyridin-3-yl)-10-methyl-3,4-dihydro-2H-pyrazino[1,2-a]indol-1-one] | 0.015 µM | 196 °C |
| Cc1c2n(c3c(-c4ccc(Cl)nc4)cc(Cl)cc13)CCNC2=O [Example 112, 8-Chloro-6-(6-chloro-pyridin-3-yl)-10-methyl-3,4-dihydro-2H-pyrazino[1,2-a]indol-1-one] | 0.012 µM | 276 °C |
| Cc1c2n(c3c(-c4ccc(N(C)C)cc4)cc(Cl)cc13)CCNC2=O [Example 113, 8-Chloro-6-(4-dimethylamino-phenyl)-10-methyl-3,4-dihydro-2H-pyrazino[1,2-a]indol-1-one] | 0.01 µM | 227 °C |
| Cc1c2n(c3c(-c4ccc(F)nc4)cc(Cl)cc13)CCNC2=O [Example 114, 8-Chloro-6-(6-fluoro-pyridin-3-yl)-10-methyl-3,4-dihydro-2H-pyrazino[1,2-a]indol-1-one] | 0.04 µM | 270 °C |
| Cc1c2n(c3c(-c4cccc(Cl)c4)cc(Cl)cc13)CCNC2=O [Example 115, 8-Chloro-6-(3-chloro-phenyl)-10-methyl-3,4-dihydro-2H-pyrazino[1,2-a]indol-1-one] | 0.43 µM | 218.5 °C |
| Cc1c2n(c3c(-c4ccc5c(c4)CCO5)cc(Cl)cc13)CCNC2=O [Example 116, 8-Chloro-6-(2,3-dihydro-benzofuran-5-yl)-10-methyl-3,4-dihydro-2H-pyrazino[1,2-a]indol-1-one] | 0.055 µM | 261 °C |
| Cc1c2n(c3c(-c4cccc(C#N)c4)cc(Cl)cc13)CCNC2=O [Example 117, 3-(8-Chloro-10-methyl-1-oxo-1,2,3,4-tetrahydro-pyrazino[1,2-a]indol-6-yl)-benzonitrile] | 0.4 µM | 199 °C |
| Cc1c2n(c3c(-c4ccc(C(C)(C)C)cc4)cc(Cl)cc13)CCNC2=O [Example 118, 6-(4-tert-Butyl-phenyl)-8-chloro-10-methyl-3,4-dihydro-2H-pyrazino[1,2-a]indol-1-one] | 0.15 µM | 252 °C |
